Tests used:
[1] = In vitro permeation (Hanson Microette Franz Cell), flux across polysulfone membrane; format: in vitro ADME
Method: (§1) An in vitro permeation procedure for oxymetazoline cream was developed using the 0.01 and 0.10% w/w oxymetazoline cream. The in vitro experiments were conducted using Hanson Microette Franz Cell apparatus and 0.01N PBS (pH 7.4) as the receiving medium. Other critical parameters were evaluated such as the type of semi-synthetic membrane, sample timing (time dependent release-permeability profile), method sensitivity, specificity and linearity.
Permeation characterization of oxymetazoline cream of different strengths (0.01% w/w, 0.05% w/w, 0.10% w/w and 0.15% w/w) was based on flux study across two different artificial membranes (cellulose acetate and polysulfone). The concentration of oxymetazoline which permeated through the membranes was measured using an HPLC assay.

[2] = In vitro permeation (Hanson Microette Franz Cell), flux across cellulose acetate membrane; format: in vitro ADME
Method: as §1, with “linearity. Permeation characterization of oxymetazoline cream of different strengths (0.01% w/w, 0.05% w/w, 0.10% w/w and 0.15% w/w) was based on flux study across two different artificial membranes (cellulose acetate and polysulfone). The concentration of oxymetazoline which permeated through the membranes was measured using an HPLC assay.” for “linearity.”

[3] = concentration range 0.01-0.10% w/w
[4] = creams 0.01-0.15% w/w, dump and die profile

Cc1cc(C(C)(C)C)c(O)c(C)c1CC1=NCCN1 [oxymetazoline, 3-(4,5-dihydro-1H-imidazol-2-ylmethyl)-2,4-dimethyl-6-tert-butyl-phenol]
concentration level above which in vitro membrane transport reached saturation [1]: > 0.1 % w/w
Oxymetazoline permeability (AUC0-24h) as a function of concentration [1, 3]: linearly increased
time of peak of oxymetazoline permeation rate after cream application [1, 4]: 0.5 h
concentration level above which in vitro membrane transport reached saturation [2]: > 0.1 % w/w
Oxymetazoline permeability (AUC0-24h) as a function of concentration [2, 3]: linearly increased
time of peak of oxymetazoline permeation rate after cream application [2, 4]: 0.5 h
